Results: ChEMBL document CHEMBL1201862, “PubChem BioAssay data set” (2004)
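Briefly, cells in 96-well plates were exposed to five compound concentrations for 48 h, and endpoints were estimated by linear interpolation. GI50 is the concentration that inhibits growth by half.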 Calls of active or inactive are those of the source. Cut-off read from the data, not from the text of the source: active = GI50 up to about 1.1 µM and inactive = higher.

Key:
Assay in all cases: growth of human tumour cells (NCI), 48 h
[1] = system: 786-0
[2] = system: A498
[3] = system: A549
[4] = system: ACHN
[5] = system: CAKI-1
[6] = system: CCRF-CEM
[7] = system: COLO 205
[8] = system: DLD-1
[9] = system: DMS-114
[10] = system: DMS-273
[11] = system: EKVX
[12] = system: HCC 2998
[13] = system: HCT-116
[14] = system: HCT-15
[15] = system: HL-60
[16] = system: HOP-62
[17] = system: HOP-92
[18] = system: IGROV-1
[19] = system: K562
[20] = system: KM-20L2
[21] = system: KM12
[22] = system: LOX IMVI
[23] = system: LXFL 529
[24] = system: M14
[25] = system: M19-MEL
[26] = system: MOLT-4
[27] = system: Malme-3M
[28] = system: NCI-H226
[29] = system: NCI-H23
[30] = system: NCI-H460
[31] = system: NCI-H522
[32] = system: OVCAR-3
[33] = system: OVCAR-4
[34] = system: OVCAR-5
[35] = system: OVCAR-8
[36] = system: SF-268
[37] = system: SF-295
[38] = system: SF-539
[39] = system: SK-MEL-28
[40] = system: SK-MEL-2
[41] = system: SK-MEL-5
[42] = system: SK-OV-3
[43] = system: SN12C
[44] = system: SNB-19
[45] = system: SNB-75
[46] = system: SNB-78
[47] = system: SW-620
[48] = system: TK-10
[49] = system: U-251
[50] = system: UACC-257
[51] = system: UACC-62
[52] = system: UO-31
[53] = system: XF498
[54] = system: HOP-18
[55] = system: HT-29
[56] = system: RPMI-8226
[57] = system: RXF 393
[58] = system: SR
[59] = system: MCF7
[60] = system: NCI/ADR-RES

Measured: GI50

CCn1c2c(c3ccccc31)C(c1ccccc1)CC1C(=O)N(c3ccccc3)C(=O)C21 (configuration not stated)
> 100 µM: [14]
inactive: [1] 21 µM | [2] 5.78 µM | [3] 21.9 µM | [4] 57.5 µM | [5] 35.2 µM | [6] > 100 µM | [7] > 100 µM | [8] 74 µM | [9] 89.5 µM | [10] 51.4 µM | [11] 42.8 µM | [12] 59 µM | [13] 55 µM | [15] 68.9 µM | [16] 87.1 µM | [17] 26.2 µM | [18] 33 µM | [19] 89.5 µM | [20] > 100 µM | [21] > 100 µM | [22] > 100 µM | [23] 42.8 µM | [24] > 100 µM | [25] > 100 µM | [26] 91.2 µM | [27] 24 µM | [28] 31.8 µM | [29] > 100 µM | [30] 54.1 µM | [31] 72.8 µM | [32] > 100 µM | [33] > 100 µM | [34] > 100 µM | [35] 9.59 µM | [36] > 100 µM | [37] > 100 µM | [38] 35.4 µM | [39] 41.6 µM | [40] 61 µM | [41] 31.7 µM | [42] 24.7 µM | [43] 67.1 µM | [44] 50.5 µM | [45] 17.6 µM | [46] 36.8 µM | [47] > 100 µM | [48] > 100 µM | [49] > 10 µM | [50] > 100 µM | [51] 38.9 µM | [52] 36.1 µM | [53] 15.8 µM

N#CC1(C#N)C=CC(=C2OCC3CCCN23)C=C1 (configuration not stated)
> 100 µM: [14]
inactive: [1] > 100 µM | [2] > 100 µM | [3] > 100 µM | [4] > 100 µM | [5] > 100 µM | [6] 77.1 µM | [7] > 100 µM | [8] > 100 µM | [9] > 100 µM | [10] > 100 µM | [12] > 100 µM | [13] > 100 µM | [15] 87.5 µM | [54] > 100 µM | [16] > 100 µM | [17] 96.2 µM | [55] > 100 µM | [18] > 100 µM | [19] > 100 µM | [20] > 100 µM | [21] > 100 µM | [22] > 100 µM | [23] > 100 µM | [24] > 100 µM | [25] > 100 µM | [26] > 100 µM | [27] > 100 µM | [28] > 100 µM | [30] > 100 µM | [31] > 100 µM | [33] > 100 µM | [34] > 100 µM | [35] > 100 µM | [56] > 100 µM | [57] > 100 µM | [36] > 100 µM | [37] > 100 µM | [38] > 100 µM | [40] > 100 µM | [41] 37.8 µM | [42] > 100 µM | [43] > 100 µM | [44] > 100 µM | [45] 52.2 µM | [46] > 100 µM | [47] > 100 µM | [48] > 100 µM | [49] > 100 µM | [50] > 100 µM | [51] > 100 µM | [52] > 100 µM

CCOP(=O)(C/C(O)=C1\C(=O)C(CCCCNC(=O)OC(C)(C)C)N(Cc2ccccc2)C1=O)OCC (configuration not stated)
inactive: [1] > 100 µM | [2] > 100 µM | [3] > 100 µM | [4] > 100 µM | [5] > 100 µM | [6] > 100 µM | [7] > 100 µM | [8] > 100 µM | [9] > 100 µM | [10] > 100 µM | [11] > 100 µM | [12] > 100 µM | [13] > 100 µM | [15] 63.7 µM | [54] 80.5 µM | [16] > 100 µM | [55] > 100 µM | [18] > 100 µM | [19] > 100 µM | [20] > 100 µM | [21] > 100 µM | [22] > 100 µM | [23] > 100 µM | [24] > 100 µM | [25] > 100 µM | [26] 78.7 µM | [27] > 100 µM | [28] > 100 µM | [29] > 100 µM | [30] > 100 µM | [31] 1.12 µM | [32] > 100 µM | [33] 94.2 µM | [34] > 100 µM | [35] > 100 µM | [56] > 100 µM | [57] > 100 µM | [36] > 100 µM | [37] > 100 µM | [38] > 100 µM | [39] > 100 µM | [40] > 100 µM | [41] > 100 µM | [42] > 100 µM | [43] > 100 µM | [45] > 100 µM | [58] 69.2 µM | [48] > 100 µM | [49] > 100 µM | [50] > 100 µM | [51] > 100 µM | [52] > 100 µM

CCCCCCCCC1=CCC(CN(C)C)C1=O (configuration not stated)
inactive: [2] > 43.9 µM | [3] > 100 µM | [6] 10.6 µM | [7] 18.8 µM | [8] 18.8 µM | [9] 18.7 µM | [10] 18.7 µM | [11] 23.6 µM | [12] 14 µM | [13] 19.4 µM | [15] 12 µM | [16] > 31.6 µM | [17] 16.9 µM | [55] 19.4 µM | [18] 19.4 µM | [19] 9.82 µM | [20] 21.9 µM | [21] 15.1 µM | [22] 16.6 µM | [25] 17.8 µM | [59] 4.69 µM | [26] 19 µM | [27] 17.8 µM | [28] > 51.4 µM | [29] 19.9 µM | [30] 16.3 µM | [31] 16.7 µM | [60] 20.5 µM | [32] 18.3 µM | [33] 23.6 µM | [34] 33.3 µM | [35] 17.9 µM | [56] 1.34 µM | [57] 19.7 µM | [36] 18.3 µM | [37] > 42.1 µM | [38] 19.7 µM | [39] 20.1 µM | [40] 21.3 µM | [41] 20.1 µM | [42] > 100 µM | [43] 17.1 µM | [44] > 55.2 µM | [45] 17.7 µM | [46] 23.8 µM | [47] 19.9 µM | [49] 18.1 µM | [50] 20.9 µM | [51] 18.1 µM | [52] 17 µM
17.8 µM: [14]

CCN(CC)C(=O)C(C)n1cc(C)c(=O)[nH]c1=O (configuration not stated)
> 100 µM: [14]
inactive: [1] > 100 µM | [3] > 100 µM | [4] > 100 µM | [6] > 100 µM | [7] > 100 µM | [9] > 100 µM | [10] > 100 µM | [11] > 100 µM | [12] > 100 µM | [13] > 100 µM | [15] > 100 µM | [16] > 100 µM | [55] > 100 µM | [18] > 100 µM | [19] > 100 µM | [20] > 100 µM | [21] > 100 µM | [22] > 100 µM | [23] > 100 µM | [24] > 100 µM | [25] > 100 µM | [26] > 100 µM | [27] > 100 µM | [29] > 100 µM | [30] > 100 µM | [31] > 100 µM | [32] > 100 µM | [33] > 100 µM | [34] > 100 µM | [35] > 100 µM | [56] > 100 µM | [57] > 100 µM | [36] > 100 µM | [37] > 100 µM | [38] > 100 µM | [39] > 100 µM | [40] > 100 µM | [41] > 100 µM | [43] > 100 µM | [44] > 100 µM | [45] 15.1 µM | [46] > 100 µM | [47] > 100 µM | [48] > 100 µM | [49] > 100 µM | [51] > 100 µM | [52] > 100 µM | [53] > 100 µM
